From US20240101552A1, “CARBONYL HETEROCYCLIC COMPOUND AND APPLICATION THEREOF” (SHANGHAI PHARMACEUTICALS HOLDING CO., LTD., priority 2020, published 2024)

Biological target: LANCL2 (Homo sapiens (Human), UniProt Q9NS86)
Assay: SPR (BIACORE S200) kinetic determination of LANCL2-small molecule interactions
Format: binding
Conditions: for Kd: immobilized LANCL2, 1:1 binding model, pH 6.5, 25° C.; for Rmax (RU): maximum binding force
Procedure: 1.1 Reagent Materials • Ligand: LANCL2 • Running buffer: 20 mM MES, 150 mM NaCl, 0.05% P20, pH 6.5, 1% DMSO
Injection conditions for small molecule compounds: a flow rate of 30 μL/min, a binding time of 60 s, a dissociation time of 300 s.
Running buffer: 20 mM MES, 150 mM NaCl, 0.05% P20, pH 6.5, 1% DMSO.
Sample chamber temperature: 25° C.; analysis temperature: 25° C.
Kinetic determination of LANCL2-small molecule interactions was performed. The kinetic parameters of small molecules BT-11 and L-1 to 60 (analytes) binding to LANCL2 (ligand) were determined using BIACORE S200. Data were generated in triplicate in a dose-dependent manner (5-8 titration points) and analyzed to determine binding models (Langmuir, conformational shifts, etc.), real-time association and dissociation constants, and equilibrium dissociation constants. SPR technology allows the validation of specific LANCL2-phytochemical interactions as well as an increased insight into the gold standard of binding mechanisms and rates. Experiments were performed on carboxymethyl polydextrose (CM5) sensor chips by amine-coupled covalent attachment of LANCL2. Data were analyzed with BIACORE S200T200 evaluation software (version 1), so as to determine affinity binding constants (KD) using a 1:1 binding model.
An optical technique for detecting molecular interactions, SPR, was used to measure the binding affinity between LANCL2 and a ligand thereof (compound to be tested). Purified recombinant LANCL2 protein was immobilized on a BIACORE sensor chip and small molecules were injected onto the protein surface using an equipment of microfluidic system. The change in total mass on the chip surface, corresponding to a small binding to the protein, was measured. […] The equilibrium dissociation constant (Kd) was often used to describe the affinity between a ligand and a protein, such as affinity degree of a ligand binding to a specific protein. Ligand-protein affinity was affected by non-covalent intermolecular interactions between two molecules, such as hydrogen bonding, electrostatic interactions, hydrophobic bonds and van der Waals forces. The steady-state affinity (Kd) for each interaction could be measured by plotting equilibrium binding levels against compound concentrations.

Sequence of LANCL2 (Q9NS86 whole entry, species assumed): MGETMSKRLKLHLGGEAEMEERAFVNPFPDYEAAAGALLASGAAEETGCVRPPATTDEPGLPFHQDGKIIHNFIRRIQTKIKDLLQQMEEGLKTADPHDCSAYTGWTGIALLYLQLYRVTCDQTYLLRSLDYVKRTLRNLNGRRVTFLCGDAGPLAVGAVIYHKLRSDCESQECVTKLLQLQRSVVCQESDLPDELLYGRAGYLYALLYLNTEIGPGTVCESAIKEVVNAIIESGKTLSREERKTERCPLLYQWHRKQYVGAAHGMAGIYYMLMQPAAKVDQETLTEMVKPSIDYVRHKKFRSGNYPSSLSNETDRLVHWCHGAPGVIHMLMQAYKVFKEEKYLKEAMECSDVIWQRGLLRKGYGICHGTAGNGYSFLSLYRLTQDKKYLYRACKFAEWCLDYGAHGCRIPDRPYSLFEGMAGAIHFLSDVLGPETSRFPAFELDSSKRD

Structure (SMILES) | binding activity compared with positive reference compound BT-11 | Kd [µM] | Rmax (RU)
O=C(c1cccc(-c2nc3ccccc3[nH]2)n1)N1CCC2(CC1)CCN(C(=O)c1cccc(-c3nc4ccccc4[nH]3)n1)CC2 [Embodiment L-9, (3,9-diazaspiro[5.5]undecane-3,9-diyl)bis((6-(1H-benzo[d]imidazol-2-yl)pyridin-2-yl)methanone)] | better binding activities than the positive reference compound BT-11 | 3.44 | 3.9
O=C(Nc1ccccc1NC(=O)c1ccnc(N2CCOCC2)n1)c1ccnc(N2CCOCC2)n1 [Embodiment L-13, N,N′-(1,2-phenylene)bis(2-morpholinopyrimidine-4-carboxamide)] |  | 38.3 | 1.5
O=C(NC1C2CN(C(=O)c3cccc(-c4nc5ccccc5[nH]4)n3)CC21)c1ccnc(N2CCOCC2)n1 [Embodiment L-14, N-(3-(6-(1H-benzo[d]imidazol-2-yl)picolinoyl)-3-azabicyclo[3.1.0]hexan-6-yl)-2-morpholinopyrimidine-4-carboxamide] |  | 21.1 | 7.1
O=C(c1cccc(-c2nc3ccccc3[nH]2)n1)N1CC2CC1CN2C(=O)c1ccnc(N2CCOCC2)n1 [Embodiment L-18, (5-(6-(1H-benzo[d]imidazol-2-yl)picolinoyl)-2,5-diazabicyclo[2.2.1]heptan-2-yl)(2-morpholinopyrimidin-4-yl)methanone] |  | 127 | 5.2
O=C(NC1CCN(C(=O)c2cccc(-c3nc4ccccc4[nH]3)n2)CC1)c1ccnc(Nc2ccccc2)n1 [Embodiment L-19] |  | 25.3 | 9.7
O=C(NC1CCN(C(=O)c2cccc(-c3nc4ccccc4[nH]3)n2)CC1)C1CCCC(c2nc3ccccc3[nH]2)C1 [Embodiment L-20] |  | 43.3 | 5.3
O=C(NC1CCN(C(=O)c2cccc(-c3nc4ccccc4[nH]3)n2)CC1)c1ccnc(Nc2ccccn2)n1 [Embodiment L-21] |  | 9.88 | 7.3
O=C(NC1C2CN(C(=O)c3cccc(-c4nc5ccccc5[nH]4)n3)CC21)c1ccnc(Nc2ccccc2)n1 [Embodiment L-23, N-(3-(6-(1H-benzo[d]imidazol-2-yl)picolinoyl)-3-azabicyclo[3.1.0]hexan-6-yl)-2-(phenylamino)pyrimidine-4-carboxamide] |  | 10.3 | 7.5
O=C(c1cccc(-c2nc3ccccc3[nH]2)n1)N1CCC2(CC1)CCN(C(=O)c1ccnc(Nc3ccccc3)n1)CC2 [Embodiment L-27, (9-(6-(1H-benzo[d]imidazol-2-yl)picolinoyl)-3,9-diazaspiro[5.5]undecan-3-yl)(2-(phenylamino)pyrimidin-4-yl)methanone] |  | 13.3 | 6.5
CN1CCC2(CC1)CCN(c1ccc(NC(=O)C3CCN(C(=O)c4cccc(-c5nc6ccccc6[nH]5)n4)C3)cc1)CC2 [Embodiment L-35, 1-(6-(1H-benzo[d]imidazol-2-yl)picolinoyl)-N-(4-(9-methyl-3,9-diazaspiro[5.5]undecan-3-yl)phenyl)pyrrolidine-3-carboxamide] |  | 66.1 | 14.4
O=C(NC1CCN(C(=O)c2cccc(-c3cn4ccccc4n3)c2)CC1)c1ccnc(Nc2ccccc2)n1 [Embodiment L-42, N-(1-(3-(imidazo[1,2-a]pyridin-2-yl)benzoyl)piperidin-4-yl)-2-(phenylamino)pyrimidine-4-formamide] |  | 13.2 | 12
O=C(c1cccc(Nc2ccccc2)n1)N1CC2CN(C(=O)c3cccc(-c4nc5ccccc5[nH]4)n3)CC2C1 [Embodiment L-46, (5-(6-(1H-benzo[d]imidazol-2-yl)picolinoyl)hexahydropyrrolo[3,4-c]pyrrol-2(1H)-yl)(6-(phenylamino)pyridin-2-yl)methanone] |  | 30.4 | 10.6
O=C(NC1C2CN(C(=O)c3cccc(-c4nc5ccccc5[nH]4)n3)CC21)c1cccc(Nc2ccccn2)n1 [Embodiment L-52, N-(3-(6-(1H-benzo[d]imidazol-2-yl)picolinoyl)-3-azabicyclo[3.1.0]hexan-6-yl)-6-(pyridin-2-ylamino)picolinamide] | better binding activities than the positive reference compound BT-11 | 2.83 | 3.9
O=C(c1ccnc(Nc2ccccn2)c1)N1CC2CN(C(=O)c3cccc(-c4cn5ccccc5n4)n3)CC2C1 [Embodiment L-54, (5-(6-(imidazo[1,2-a]pyridin-2-yl]picolinoyl)hexahydropyrrolo[3,4-c]pyrrol-2(1H)-yl)(2-(pyridin-2-ylamino)pyridin-4-yl)methanone] |  | 27.8 | 8.4
O=C(c1cccc(-c2nc3ccccc3[nH]2)n1)N1CCC(c2nc3ccccc3[nH]2)CC1 [Embodiment L-57, (4-(1H-benzo[d]imidazol-2-yl)piperidin-1-yl)(6-(1H-benzo[d]imidazol-2-yl)pyridin-2-yl)methanone] |  | 8.02 | 8
O=C(c1cccc(-c2nc3ccccc3[nH]2)n1)N1CCC2(CCCN(C(=O)c3cccc(-c4nc5ccccc5[nH]4)n3)C2)CC1 [Embodiment L-58, (2,9-diazaspiro[5.5]undecane-2,9-diyl)bis(6-(1H-benzo[d]imidazol-2-yl)pyridin-2-yl)methanone] |  | 21.5 | 3.3
O=C(c1cccc(-c2nc3ccccc3[nH]2)n1)N1CCC2(CC1)CCN(C(=O)c1cccc(-c3nc4ccccc4[nH]3)n1)C2 [Embodiment L-59, (2,8-diaza[4.5]decane-2,8-diyl)bis(6-(1H-benzo[d]imidazol-2-yl)pyridin-2-yl)methanone] |  | 14.9 | 3.6
O=C(c1ccc(-c2nc3ccccc3[nH]2)nc1)N1CCC2(CCN(C(=O)c3cccc(-c4nc5ccccc5[nH]4)n3)C2)C1 [Embodiment L-60, (7-(6-(1H-benzo[d]imidazol-2-yl)nicotinoyl)-2,7-diazaspiro[4.4]nonan-2-yl)(6-(1H-benzo[d]imidazol-2-yl)pyridin-2-yl)methanone] |  | 27.4 | 3.6
O=C(c1cccc(-c2nc3ccccc3[nH]2)n1)N1CCC2(CC1)CCN(C(=O)c1ccnc(Nc3ccccc3)n1)C2 [Embodiment L-62, (8-(6-(1H-benzo[d]imidazol-2-yl)picolinoyl)-2,8-diazaspiro[4.5]dec-2-yl)(2-(phenylamino)pyrimidin-4-yl)methanone] |  | 29.3 | 5.7
O=C(c1cccc(Nc2ccccc2)n1)N1CCCC2(CCN(C(=O)c3cccc(-c4nc5ccccc5[nH]4)n3)CC2)C1 [Embodiment L-63, (9-(6-(1H-benzo[d]imidazol-2-yl)picolinoyl)-2,9-diazaspiro[5.5]undecan-2-yl)(6-(phenylamino)pyridin-2-yl)methanone] |  | 53.5 | 7.6
O=C(c1cccc(-c2nc3ccccc3[nH]2)n1)N1CCC2(CCCN(C(=O)c3ccnc(Nc4ccccc4)n3)C2)CC1 [Embodiment L-64, (9-(6-(1H-benzo[d]imidazol-2-yl)picolinoyl)-2,9-diazaspiro[5.5]undecan-2-yl)(2-(phenylamino)pyrimidin-4-yl)methanone] |  | 48.8 | 6.1
O=C(c1cccc(Nc2ccccc2)n1)N1CCC2(CCN(C(=O)c3cccc(-c4nc5ccccc5[nH]4)n3)C2)C1 [Embodiment L-65, (7-(6-(1H-benzo[d]imidazol-2-yl)picolinoyl)-2,7-diazaspiro[4.4]non-2-yl)(6-(phenylamino)pyridin-2-yl)methanone] |  | 26 | 6.5
O=C(c1cccc(-c2nc3ccccc3[nH]2)n1)N1CCC2(CCN(C(=O)c3nccc(Nc4ccccc4)n3)C2)C1 [Embodiment L-66, (7-(6-(1H-benzo[d]imidazol-2-yl)picolinoyl)-2,7-diazaspiro[4.4]non-2-yl)(4-(phenylamino)pyrimidin-2-yl)methanone] |  | 31.8 | 7.2
O=C(c1cccc(-c2nc3ccccc3[nH]2)n1)N1CC2CN(C(=O)c3ccc4ccccc4n3)CC2C1 [Embodiment L-69, (5-(6-(1H-benzo[d]imidazol-2-yl)picolinoyl)hexahydropyrrolo[3,4-c]pyrrol-2(1H)-yl)(quinolin-2-yl)methanone] |  | 21.7 | 6.1
Cc1[nH]c2ccccc2c1C(=O)N1CC2CN(C(=O)c3cccc(-c4nc5ccccc5[nH]4)n3)CC2C1 [Embodiment L-71, (5-(6-(1H-benzo[d]imidazol-2-yl)picolinoyl)hexahydropyrrolo[3,4-c]pyrrol-2(1H)-yl)(2-methyl-1H-indol-3-yl)methanone] |  | 40.6 | 5.9
